Assay results reported in patent publication US12351574B2, “Selective ligands for modulation of GIRK channels” (Northeastern University, priority 2018, dated 2025).

Target: T1, GIRK1-S65Y with GIRK4 (Homo sapiens, UniProt P48544+P48549, S65Y)
T1 construct: expressed in transfected cells; host or cells: HEK293-T cells
T1 sequence (P48549 1-501 S65Y): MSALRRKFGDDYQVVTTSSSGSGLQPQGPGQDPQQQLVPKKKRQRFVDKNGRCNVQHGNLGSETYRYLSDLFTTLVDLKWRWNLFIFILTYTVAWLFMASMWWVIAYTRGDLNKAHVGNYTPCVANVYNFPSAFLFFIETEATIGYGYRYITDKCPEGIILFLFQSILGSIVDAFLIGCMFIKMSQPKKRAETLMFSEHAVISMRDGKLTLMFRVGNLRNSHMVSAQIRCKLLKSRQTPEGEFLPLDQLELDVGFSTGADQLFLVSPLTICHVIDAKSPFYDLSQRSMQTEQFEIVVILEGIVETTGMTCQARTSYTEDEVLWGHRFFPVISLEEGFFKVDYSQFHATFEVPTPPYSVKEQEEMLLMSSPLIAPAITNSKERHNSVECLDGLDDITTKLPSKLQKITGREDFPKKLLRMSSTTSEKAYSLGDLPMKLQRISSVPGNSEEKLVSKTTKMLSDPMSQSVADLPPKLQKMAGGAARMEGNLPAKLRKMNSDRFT
T1 sequence (P48544 1-419): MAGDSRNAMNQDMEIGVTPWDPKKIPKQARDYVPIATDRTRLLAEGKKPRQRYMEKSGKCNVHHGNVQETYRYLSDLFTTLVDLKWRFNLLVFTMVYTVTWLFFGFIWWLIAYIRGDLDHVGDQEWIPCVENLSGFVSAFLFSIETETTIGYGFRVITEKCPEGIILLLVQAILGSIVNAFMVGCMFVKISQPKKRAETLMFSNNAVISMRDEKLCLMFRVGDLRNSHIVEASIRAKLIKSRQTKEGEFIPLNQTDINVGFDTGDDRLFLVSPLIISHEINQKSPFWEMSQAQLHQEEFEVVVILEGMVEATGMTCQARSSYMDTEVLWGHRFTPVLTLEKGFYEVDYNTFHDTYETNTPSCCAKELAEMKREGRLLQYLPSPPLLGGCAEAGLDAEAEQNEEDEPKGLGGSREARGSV
Test: 5-ptaseOCRL current inhibition, GIRK1/4 channels containing GIRK1-S65Y subunits
Assay type: cell-based
Description: To identify changes in specific channel residue interactions with PIP2 upon ligand binding, the inventors carried out Principal Component Analysis (PCA) in the presence and absence of ML297 and GAT1508. The PCA analysis implicated changes in the slide (or interfacial) helix interactions with PIP2 upon ligand binding. Polar interactions could be formed between GIRK2^FD(Y76) and GIRK4^FD(Y71) with the P(4,5) of PIP2 when ML297 was bound to the same subunit (FIG. 39 top, FIG. 40). In contrast, when GAT1508 was bound this interaction was retained by GIRK2^FD but not GIRK4^FD (FIG. 39 bottom, FIG. 40). The corresponding GIRK1(S65) residue (FIG. 41, highlighted with vertical rectangle) could be serving the same role in stabilizing the phosphoinositol headgroup for interactions with non-ligand binding subunits. As polar residues, both Ser and Tyr could form H-bond interactions with PIP2. […]
Patch-clamp recording: Whole-cell currents were recorded with an Axopatch 200B amplifier (Molecular Devices) controlled via a USB-interface (National Instruments) using WinWCP software (University of Strathclyde). […] The barium-sensitive component of the current, observed when cells were perfused with the high-K^+ buffer, was analyzed and was determined by perfusing 5 mM BaCl2 in the high-K^+ buffer at the end of each experiment. […]

Row | SMILES | τ of current-inhibition (in words)
1 | Cc1cc(NC(=O)Nc2ccc(Br)s2)n(-c2ccccc2)n1 [GAT1508, 1-(5-bromothiophen-2-yl)-3-(3-methyl-1-phenyl-1H-pyrazol-5-yl)urea] | not statistically increased
2 | Cc1cc(NC(=O)Nc2ccc(F)c(F)c2)n(-c2ccccc2)n1 [ML297, reference compound] | not statistically increased
